From EPA's ToxValDB 9.5 (doi:10.2903/j.efsa.2009.1390)
In brackets after ≈: the same amount, converted by molar mass.

Assays:
Anas platyrhynchos = settings: acute; oral; unspecified; mortality
Apis mellifera = settings: acute, mortality
Bibionidae = settings: chronic/long-term; duration: 28 days
Canidae = settings: chronic; duration: 1 years; oral; Dog Other; organ weight
Daphnia magna = settings: chronic/long-term; duration: 21 days; reproduction
Oryctolagus sp. = settings: reproduction developmental; body weight
Rattus norvegicus = settings: acute; oral; F; mortality
Typhlodromus pyri = assay: LR50; higher = less toxic; settings: not reported; mortality

SMILES | LD50 (Anas platyrhynchos) [mg/kg-day] | LC50 (Colinus virginianus; acute, oral, diet, mortality) [mg/kg-day] | LD50 (Apis mellifera; dermal) [µg/piece] | LD50 (Apis mellifera; oral, unspecified) [µg/piece] | NOEC (Bibionidae) [mg/L] | NOAEL (Canidae) [mg/kg-day] | NOEC (Colinus virginianus; reproduction developmental) [mg/kg-day] | NOEC (Daphnia magna) [mg/L] | LC50 (Oncorhynchus mykiss; acute, duration: 96 hours, mortality) [µg/mL] | NOEC (Oncorhynchus mykiss; chronic/long-term, duration: 70 days, development) [mg/L] | NOAEL (Oryctolagus sp.) [mg/kg-day] | LD50 (Rattus norvegicus) [mg/kg-day] | LC50 (Tagia sp.; acute, duration: 14 days, mortality) [mg/kg] | NOEC (Tagia sp.; chronic/long-term, duration: 8 weeks) [mg/kg] | LR50 (Typhlodromus pyri) [g/ha]
Nc1c(Cl)c(Cl)nc(C(=O)[O-])c1Cl.[K+] [Picloram potassium salt] | > 2250 | > 2200 | – | – | – | – | – | – | – | – | – | – | – | – | –
Nc1c(Cl)c(Cl)nc(C(=O)O)c1Cl [Picloram] | – | – | > 100 | > 74 | 100 | 35 | 65 | 6.79 | 8.8 (≈ 36.4 µM) | 0.55 | 30 | 4010 | > 4480 | 0.167 | > 23.4
